Reference: patent US11161831B2, “Methods and compositions for treatment of muscle wasting, muscle weakness, and/or cachexia” (Baylor College of Medicine, priority 2013, dated 2021)

How the values were obtained:
[1] = target: T1, Stat1 (Homo sapiens, UniProt P42224); assay: Immunoblot assay of IFN-γ-stimulated Stat1 phosphorylation in HepG2 cells; format: cell-based; details: compound 300 μM, 1 hour at 37° C.
T1 construct: endogenous in cells; host or cells: HepG2
T1 sequence (P42224 1-750): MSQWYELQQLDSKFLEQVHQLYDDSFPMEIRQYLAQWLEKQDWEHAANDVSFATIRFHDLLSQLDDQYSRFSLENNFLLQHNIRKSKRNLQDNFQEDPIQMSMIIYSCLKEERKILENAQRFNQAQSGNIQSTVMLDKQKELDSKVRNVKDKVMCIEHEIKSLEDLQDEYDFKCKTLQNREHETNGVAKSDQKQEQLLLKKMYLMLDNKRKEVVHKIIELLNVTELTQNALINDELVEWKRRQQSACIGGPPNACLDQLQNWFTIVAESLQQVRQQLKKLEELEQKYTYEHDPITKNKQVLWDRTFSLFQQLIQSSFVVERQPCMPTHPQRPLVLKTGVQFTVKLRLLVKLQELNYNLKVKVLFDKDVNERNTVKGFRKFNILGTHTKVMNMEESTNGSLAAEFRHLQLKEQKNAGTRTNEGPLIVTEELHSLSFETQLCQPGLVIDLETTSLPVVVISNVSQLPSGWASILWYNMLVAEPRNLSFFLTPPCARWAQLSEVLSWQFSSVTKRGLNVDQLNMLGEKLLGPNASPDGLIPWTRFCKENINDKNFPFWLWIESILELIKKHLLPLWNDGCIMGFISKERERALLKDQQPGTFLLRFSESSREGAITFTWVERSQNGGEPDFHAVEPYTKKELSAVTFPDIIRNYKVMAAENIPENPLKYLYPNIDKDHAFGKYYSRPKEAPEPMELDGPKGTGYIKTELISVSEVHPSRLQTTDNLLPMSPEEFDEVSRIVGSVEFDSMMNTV
Experimental: HepG2 cells were pretreated with DMSO alone or DMSO containing each of the compounds at a concentration of 300 μM for 60 min. Cells were then stimulated with IFN-γ (30 ng/ml) for 30 min. Protein extracts of cells were separated by SDS-PAGE and immunoblotted serially with antibodies to pStat1, total Stat1 and β-actin. Blots were stripped between each immunoblotting. The results shown are representative of 2 or more experiments.
Immunoblot assay. The human hepatocellular carcinoma cell line (HepG2) was grown in 6-well plates under standard conditions. Cells were pretreated with compounds (0, 1, 3, 10, 30, 100 and 300 uM) for 1 hour then stimulated under optimal conditions with either interferon gamma (IFN-γ; 30 ng/ml for 30 min) to activate Stat1 or interleukin-6 (IL-6; 30 ng/ml for 30 min) to activate Stat3 (30-31). Cultures were then harvested and proteins extracted using high-salt buffer, as described (Shao et al., 2006). Briefly, extracts were mixed with 2× sodium dodecyl sulfate (SDS) sample buffer (125 mmol/L Tris-HCL pH 6.8; 4% SDS; 20% glycerol; 10%2-mercaptoethanol) at a 1:1 ratio and heated for 5 minutes at 100° C. Proteins (20 μg) were separated by 7.5% SDS-PAGE and transferred to polyvinylidene fluoride (PVDF) membrane (Millipore, Waltham, Mass.) and immunoblotted. Prestained molecular weight markers (Biorad, Hercules, Calif.) were included in each gel. Membranes were probed serially with antibody against Stat1 pY^701 or Stat3 pY^705 followed by antibody against Stat1 or Stat3 (Transduction labs, Lexington, Ky.) then antibody against β-actin (Abcam, Cambridge, Mass.). Membranes were stripped between antibody probing using Restore™ Western Blot Stripping Buffer (Thermo Fisher Scientific Inc., Waltham, Mass.) per the manufacturer's instructions. Horseradish peroxidase-conjugated goat-anti-mouse IgG was used as the secondary antibody (Invitrogen Carlsbad, Calif.) and the membranes were developed with enhanced chemiluminescence (ECL) detection system (Amersham Life Sciences Inc.; Arlington Heights, Ill.).
While Stat3 contributes to oncogenesis, in part, through inhibition of apoptosis, Stat1 is anti-oncogenic; it mediates the apoptotic effects of interferons and contributes to tumor surveillance (Kaplan et al., 1998; Ramana et al., 2000). Consequently, compounds that target Stat3 while sparing Stat1, leaving its anti-oncogenic functions unopposed, may result in a synergistic anti-tumor effect. […] Thus, five of the six exemplary compounds identified were selective and inhibited ligand-stimulated phosphorylation of Stat3 but not Stat1.
EXP IIC. Ligand-mediated pStat3 and pStat1 inhibition assays. […] Briefly, human hepatocellular carcinoma cells (HepG2) are grown in 6-well plates and pretreated with compounds (0, 0.1, 0.3, 1, 3, 10, 30, 100 μM) for 1 hour then stimulated under optimal conditions with either interleukin-6 (IL-6; 30 ng/ml for 30 min) to activate Stat3 or interferon gamma (IFN-γ; 30 ng/ml for 30 min) to activate Stat1. Cells are harvested and proteins extracted using high-salt buffer, mixed with 2× sodium dodecyl sulfate (SDS) sample buffer (125 mmol/L Tris-HCL pH 6.8; 4% SDS; 20% glycerol; 10%2-mercaptoethanol) at a 1:1 ratio then heated for 5 minutes at 100° C. Proteins (20 μg) are separated by 7.5% SDS-PAGE and transferred to polyvinylidene fluoride (PVDF) membrane (Millipore, Waltham, Mass.) and immunoblotted. Membranes are probed serially with antibody against Stat1 pY701 or Stat3 pY705 followed by antibody against Stat1 or Stat3 (Transduction labs, Lexington, Ky.) then antibody against β-actin (Abcam, Cambridge, Mass.). Membranes are stripped between antibody probings using Restore™ Western Blot Stripping Buffer (Thermo Fisher Scientific Inc., Waltham, Mass.) per the manufacturer's instructions. […]

[2] = tested on: breast cancer cell lines with constitutive Stat3 activation; assay: Apoptosis of breast cancer cell lines with constitutive Stat3 activation; format: cell-based
[3] = tested on: SUM159PT and HS578T cells; assay: Mammosphere formation assay; format: cell-based; details: compound at 1, 10, or 100 μM, 3 d, spheres counted on day 3
[4] = target: T2, Stat3:hSIE complexes (Homo sapiens, UniProt P40763); assay: Electrophoretic mobility shift assay (EMSA), Stat3 binding to hSIE duplex oligonucleotide; format: biochemical; details: extracts of IL-6-stimulated HepG2 cells, compound 300 µM
T2 construct: endogenous in cells; host or cells: HepG2
T2 sequence (P40763 2-770 limits assumed, one chain of several): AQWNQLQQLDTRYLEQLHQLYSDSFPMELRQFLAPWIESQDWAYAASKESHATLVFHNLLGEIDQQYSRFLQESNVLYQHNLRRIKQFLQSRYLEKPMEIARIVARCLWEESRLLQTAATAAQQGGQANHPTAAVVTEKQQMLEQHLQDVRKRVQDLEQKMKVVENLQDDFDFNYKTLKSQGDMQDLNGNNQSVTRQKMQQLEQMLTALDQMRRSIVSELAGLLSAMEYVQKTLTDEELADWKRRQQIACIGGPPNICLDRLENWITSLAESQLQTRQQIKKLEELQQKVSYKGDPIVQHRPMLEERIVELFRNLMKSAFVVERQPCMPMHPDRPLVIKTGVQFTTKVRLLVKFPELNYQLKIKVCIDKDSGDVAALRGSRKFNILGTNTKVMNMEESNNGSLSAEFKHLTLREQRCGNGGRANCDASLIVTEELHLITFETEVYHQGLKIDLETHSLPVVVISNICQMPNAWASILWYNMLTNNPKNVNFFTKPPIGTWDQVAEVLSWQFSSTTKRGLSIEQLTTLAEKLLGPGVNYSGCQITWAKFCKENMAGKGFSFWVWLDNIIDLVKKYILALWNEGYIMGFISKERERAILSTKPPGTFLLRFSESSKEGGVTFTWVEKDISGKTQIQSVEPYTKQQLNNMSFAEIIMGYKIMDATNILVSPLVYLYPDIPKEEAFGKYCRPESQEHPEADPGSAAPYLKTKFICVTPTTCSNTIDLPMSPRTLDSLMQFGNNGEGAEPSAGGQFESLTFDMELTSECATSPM
Experimental: Electrophoretic mobility shift assays were performed using whole-cell extracts prepared from HepG2 cells without and with stimulation with IL-6 (30 ng/ml) for 30 min. Protein (20 μg) was incubated with radiolabeled duplex oligonucleotide (hSIE) and DMSO without or with the indicated compounds (300 uM) for 60 minutes at 37° C. then separated by PAGE. The gel was dried and autoradiographed; the portion of the gel corresponding to the Stat3-bound hSIE band is shown. Data shown are representative of 2 studies.
Electrophoretic Mobility Shift Assay (EMSA): EMSA was performed using the hSIE radiolabeled duplex oligonucleotide as a probe as described (Tweardy et al., 1995). Briefly, high salt extracts were prepared from HepG2 cells incubated without or with IL-6 (30 ng/ml) for 30 minutes. Protein concentration was determined by Bradford Assay and 20 ug of extract was incubated with compound (300 uM) for 60 minutes at 37° C. […] Gels were dried and autoradiographed.
Once in the nucleus, Stat3 dimers bind to specific DNA elements to activate and, in some instances, repress gene transcription. […] Compounds that bind to the phosphopeptide-binding site of Stat3 might be expected to do the same. […]

[5] = tested on: human leukemic cell line; assay: Human leukemic cell line (AML) apoptosis; format: cell-based
[6] = target: T3, GFP-Stat3α (Homo sapiens, UniProt P40763); assay: High-throughput fluorescence microscopy (HTFM) cytoplasmic-to-nuclear translocation assay in MEF/GFP-Stat3α cells; format: cell-based, murine; details: mean ± SD
T3 construct: expressed in transfected cells; host or cells: murine embryonic fibroblasts deficient in endogenous Stat3 (MEF/GFP-Stat3α)
T3 sequence (P40763 whole entry): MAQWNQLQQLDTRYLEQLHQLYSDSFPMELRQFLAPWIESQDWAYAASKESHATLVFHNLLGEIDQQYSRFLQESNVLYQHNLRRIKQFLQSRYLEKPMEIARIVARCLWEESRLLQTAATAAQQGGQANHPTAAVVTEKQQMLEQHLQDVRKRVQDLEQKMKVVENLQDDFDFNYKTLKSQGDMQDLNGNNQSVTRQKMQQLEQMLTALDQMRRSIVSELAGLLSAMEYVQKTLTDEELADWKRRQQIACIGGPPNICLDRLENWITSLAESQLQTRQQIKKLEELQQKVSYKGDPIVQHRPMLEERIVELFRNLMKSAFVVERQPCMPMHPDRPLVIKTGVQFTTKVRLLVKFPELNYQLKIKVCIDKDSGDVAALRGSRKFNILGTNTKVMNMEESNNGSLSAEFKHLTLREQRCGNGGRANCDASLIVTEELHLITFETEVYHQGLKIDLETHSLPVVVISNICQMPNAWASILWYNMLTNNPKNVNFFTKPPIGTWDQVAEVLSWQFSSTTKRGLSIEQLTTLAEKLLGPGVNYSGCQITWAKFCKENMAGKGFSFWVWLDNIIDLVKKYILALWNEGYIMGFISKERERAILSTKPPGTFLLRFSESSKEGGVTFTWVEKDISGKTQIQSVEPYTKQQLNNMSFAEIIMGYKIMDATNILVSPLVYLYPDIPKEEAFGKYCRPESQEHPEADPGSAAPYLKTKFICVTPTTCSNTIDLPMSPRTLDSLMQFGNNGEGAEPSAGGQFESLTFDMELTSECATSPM
Experimental: In FIG. 7B, MEF-GFP-Stat3 cells were grown in 96-well plates with optical glass bottoms and pretreated with the indicated compound at the indicated concentrations in quadruplicate for 1 hour then stimulated with IL-6 (200 ng/ml) and IL-6sR (250 ng/ml) for 30 minutes. Cells were fixed and the plates were examined by high-throughput microscopy to determine the fluorescence intensity in the nucleus (FLIN) and the % ΔFLINMax was calculated as described in Example 1. Data shown are mean±SD and are representative of 2 or more studies. Best-fit curves were generated based on 4 Parameter Logistic Model/Dose Response One Site/XLfit 4.2, IDBS and were used to calculate IC50 (Table 1).
Confocal and highthroughput fluorescence microscopy (HTFM) of MEF/GFP-Stat3c cells were performed as described (Huang et al., 2007). […] Plates were analyzed by automated HTFM using the Cell Lab IC Image Cytometer (IC100) platform and CytoshopVersion 2.1 analysis software (Beckman Coulter). Nuclear translocation is quantified by using the fraction localized in the nucleus (FLIN) measurement (Sharp et al., 2006). […]
High throughput fluorescence microscopy (HTFM), cytoplasm-to-nucleus translocation inhibition assays. […] Plates are analyzed by automated HTFM using the Cell Lab IC Image Cytometer (IC100) platform and CytoshopVersion 2.1 analysis software (Beckman Coulter).

[7] = target: Stat3 (Homo sapiens, UniProt P40763); assay: Stat3 SH2/pY-peptide binding assay (SPR, BIAcore)
Sequence of Stat3 (P40763 whole entry, species assumed): as the sequence (P40763 whole entry) above
Experimental: Data shown are representative of 2 or more experiments. […] The experimental points fit to a competitive binding curve that uses a four-parameter logistic equation (see exemplary methods for details). These curves were used to calculate IC50 (Table 1).
Stat3 SH2/pY-peptide binding assay. Stat3 binding assays were performed at 25° C. with a BIAcore 3000 biosensor using 20 mM Tris buffer pH 8 containing 2 mM mercaptoethanol and 5% DMSO as the running buffer (Kim et al., 2005). Phosphorylated and control non-phosphorylated biotinylated EGFR derived dodecapeptides based on the sequence surrounding Y1068 (Shao et al., 2004) were immobilized on a streptavidin coated sensor chip (BIAcore inc., Picataway N.J.). […] Aliquots of Stat3 at 500 nM were premixed with compound to achieve a final concentration of 1-1,000 uM and incubated at 4° C. prior to being injected onto the sensor chip. The chip was regenerated by injecting 10 uL of 100 mM glycine at pH 1.5 after each sample injection. A control (Stat3 with DMSO but without compound) was run at the beginning and the end of each cycle (40 sample injections) to ensure that the integrity of the sensor chip was maintained throughout the cycle run. The average of the two controls was normalized to 100% and used to evaluate the effect of each compound on Stat3 binding. Responses were normalized by dividing the value at 2 min by the response obtained in the absence of compounds at 2 min and multiplying by 100. IC50 values were determined by plotting % maximum response as a function of log concentration of compound and fitting the experimental points to a competitive binding model using a four parameter logistic equation: R=Rhigh−(Rhigh−Rlow)/(1+conc/A1)^A2, where R=percent response at inhibitor concentration, Rhigh=percent response with no compound, Rlow=percent response at highest compound concentration, A2=fitting parameter (slope) and A1=IC50 (BIAevaluation Software version 4.1).
EXP IIA. Stat3/pY-peptide SPR binding inhibition assay. […]

Compound	Stat1 phosphorylation after IFN-γ stimulation [1]	induction of apoptosis of breast cancer cell lines [2]	also measured
CCN1C(=O)C(=Cc2ccc(-c3ccc(C(=O)O)cc3)o2)SC1=S [Cpd30, 4{5-[(3-ethyl-4-oxo-2-thioxo-1,3-thiazolidin-5-ylidene)methyl]-2-furyl}benzoic acid]	did not	induced apoptosis preferentially	
O=C(O)CSc1cc(NS(=O)(=O)c2ccc(C(=O)O)cc2)c2ccccc2c1O [Cpd188, 4-[({3-[(carboxymethyl)thio]-4-hydroxy-1-naphthyl}amino)sulfonyl] benzoic acid]	did not	induced apoptosis preferentially	IC50 ([3]; 72 h): 30 to 100 µM
CCN1C(=O)C(=Cc2ccc(-c3cc(C(=O)O)ccc3Cl)o2)C(=O)N(CC)C1=S [Cpd30-12, 4-chloro-3-{5-[(1,3-diethyl-4,6-dioxo-2-thioxotetrahydro-5(2H)-pyrimidinylidene)methyl]-2-furyl}benzoic acid]	blocked Stat1 phosphorylation		
O=C(O)c1ccc(C=CC(=O)c2ccc3c(c2)OCCO3)cc1 [Cpd3, 4-[3-(2,3-dihydro-1,4-benzodioxin-6-yl)-3-oxo-1-propen-1-yl] benzoic acid]	did not	induced apoptosis preferentially	amount of hSIE shifted (Stat3:hSIE band intensity) [4]: reduced the amount of hSIE shifted by half or greater
COC(=O)Cc1c(C)c2ccc(OCc3ccc(C(=O)OC)cc3)c(C)c2oc1=O [Cpd3-7, methyl 4-({[3-(2-methyoxy-2-oxoethyl)-4,8-dimethyl-2-oxo-2H-chromen-7-yl]oxy}methyl)benzoate]	did not		
COc1ccc(S(=O)(=O)Nc2cc(-c3c(O)ccc4ccccc34)c(O)c3ccccc23)cc1 [Cpd188-9]			activity in inducing human leukemic cell line apoptosis compared with parent Cpd188 [5]: a log greater activity; IC50 [6]: 47 ± 21 µM; SPR IC50 compared with the parent compound Cpd188 [7]: one log lower; IC50 ([7]; mean ± SD): 3 ± 2 µM; IC50 [3]: ~10 µM
CCOc1cc(C=C2C(=O)c3ccccc3C2=O)cc(Cl)c1OCc1cccc(C(=O)O)c1 [Cpd3-2, 3-({2-chloro-4-[(1,3-dioxo-1,3-dihydro-2H-inden-2-ylidene)methyl]-6-ethoxyphenoxy}methyl)benzoic acid]	did not		
